{"source": "patent US4293695A", "about": "“Furonaphthyridine compounds” (Daiichi Seiyaku Co., Ltd., priority 1978, dated 1981)", "key": {"K. pneumoniae, Type 1": {"tested_on": "K. pneumoniae, Type 1", "assay": "MIC, dilution method on plate culture (heart infusion agar)", "type": "cell-based", "conditions": "Klebsiella pneumoniae, TYPE1, 10^6/ml bacteria, 37° C., 18 hours, read-out: Minimum Inhibitory Concentration (MIC)", "description": "(§1) Thus, these compounds are very useful anti-bacterial agents. The anti-bacterial activity (in vitro) and the acute toxicity (LD50) of the compounds of this invention are shown in the following Table in comparison with known oxolinic acid.\n(§2) *Determined by the standard method of Japan Society of Chemotherapy:\n(§3) dilution method on plate culture (heart infusion agar culture), 10^6\n(§4) /ml of bacteria were seeded and incubated at 37° C. for 18 hours."}, "Ent. cloacae 12001": {"tested_on": "Ent. cloacae 12001", "assay": "MIC, dilution method on plate culture (heart infusion agar)", "type": "cell-based", "conditions": "Enterobacter cloacae, 10^6/ml bacteria, 37° C., 18 hours, read-out: Minimum Inhibitory Concentration (MIC)", "description": "as §1, §2, §3, §4"}, "E. coli NIHJ": {"tested_on": "E. coli NIHJ", "assay": "MIC, dilution method on plate culture (heart infusion agar)", "type": "cell-based", "conditions": "Escherichia coli, 10^6/ml bacteria, 37° C., 18 hours, read-out: Minimum Inhibitory Concentration (MIC)", "description": "as §1, §2, §3, §4"}, "Ser. marcescens 13014": {"tested_on": "Ser. marcescens 13014", "assay": "MIC, dilution method on plate culture (heart infusion agar)", "type": "cell-based", "conditions": "Serratia marcescens, 10^6/ml bacteria, 37° C., 18 hours, read-out: Minimum Inhibitory Concentration (MIC)", "description": "as §1, §2, §3, §4"}, "Ps. aeruginosa 2063": {"tested_on": "Ps. aeruginosa 2063", "assay": "MIC, dilution method on plate culture (heart infusion agar)", "type": "cell-based", "conditions": "Pseudomonas aeruginosa, 10^6/ml bacteria, 37° C., 18 hours, read-out: Minimum Inhibitory Concentration (MIC)", "description": "as §1, §2, §3, §4"}, "Pr. vulgaris": {"tested_on": "Pr. vulgaris", "assay": "MIC, dilution method on plate culture (heart infusion agar)", "type": "cell-based", "conditions": "Proteus vulgaris, 10^6/ml bacteria, 37° C., 18 hours, read-out: Minimum Inhibitory Concentration (MIC)", "description": "as §1, §2, §3, §4"}, "S. aureus": {"tested_on": "S. aureus", "assay": "MIC, dilution method on plate culture (heart infusion agar)", "type": "cell-based", "conditions": "Staphylococcus aureus, 10^6/ml bacteria, 37° C., 18 hours, read-out: Minimum Inhibitory Concentration (MIC)", "description": "as §1, §2, §3, §4"}, "Pr. mirabilis": {"tested_on": "Pr. mirabilis", "assay": "MIC, dilution method on plate culture (heart infusion agar)", "type": "cell-based", "conditions": "Proteus mirabilis, 10^6/ml bacteria, 37° C., 18 hours, read-out: Minimum Inhibitory Concentration (MIC)", "description": "as §1, §2, §3, §4"}, "acute toxicity (LD50)": {"assay": "acute toxicity (LD50)", "conditions": "mouse, in vivo, iv; mice i.v.", "source_text": "as §1"}}, "data": [{"smiles": "CCn1cc(C(=O)O)c(=O)c2cc3c(nc21)CCO3", "note": "[Compound Ib, 5-ethyl-8-oxo-2,3,5,8-tetrahydrofuro[3,2-b]-1,8-naphthyridine-7-carboxylicacid]", "values": [{"measurement": "MIC", "setting": "K. pneumoniae, Type 1", "result": 0.8, "unit": "µg/mL"}, {"measurement": "MIC", "setting": "Ent. cloacae 12001", "result": "≤ 0.2", "unit": "µg/mL"}, {"measurement": "MIC", "setting": "E. coli NIHJ", "result": "≤ 0.2", "unit": "µg/mL"}, {"measurement": "MIC", "setting": "Ser. marcescens 13014", "result": "≤ 0.2", "unit": "µg/mL"}, {"measurement": "MIC", "setting": "Ps. aeruginosa 2063", "result": 6.3, "unit": "µg/mL"}, {"measurement": "MIC", "setting": "Pr. vulgaris", "result": "≤ 0.2", "unit": "µg/mL"}, {"measurement": "MIC", "setting": "S. aureus", "result": 3.1, "unit": "µg/mL"}, {"measurement": "MIC", "setting": "Pr. mirabilis", "result": "≤ 0.2", "unit": "µg/mL"}, {"measurement": "LD50", "setting": "acute toxicity (LD50)", "result": 376, "unit": "mg/kg"}]}, {"smiles": "CCn1cc(C(=O)O)c(=O)c2cc3c(cc21)OCO3", "note": "[Oxolinic Acid, 5-ethyl-5,8-dihydro-8-oxo-1,3-dioxolo[4,5-g]quinoline-7-carboxylic acid, reference compound]", "values": [{"measurement": "MIC", "setting": "K. pneumoniae, Type 1", "result": 3.1, "unit": "µg/mL"}, {"measurement": "MIC", "setting": "Ent. cloacae 12001", "result": 0.8, "unit": "µg/mL"}, {"measurement": "MIC", "setting": "E. coli NIHJ", "result": "≤ 0.2", "unit": "µg/mL"}, {"measurement": "MIC", "setting": "Ser. marcescens 13014", "result": 0.8, "unit": "µg/mL"}, {"measurement": "MIC", "setting": "Ps. aeruginosa 2063", "result": 25, "unit": "µg/mL"}, {"measurement": "MIC", "setting": "S. aureus", "result": 3.1, "unit": "µg/mL"}]}, {"smiles": "CCn1cc(C(=O)O)c(=O)c2cc3occc3nc21", "note": "[Compound Ia, 5,8-dihydro-5-ethyl-8-oxofuro[3,2-b]-1,8-naphthyridine-7-carboxylic acid]", "values": [{"measurement": "MIC", "setting": "K. pneumoniae, Type 1", "result": 1.6, "unit": "µg/mL"}, {"measurement": "MIC", "setting": "Ent. cloacae 12001", "result": 0.4, "unit": "µg/mL"}, {"measurement": "MIC", "setting": "E. coli NIHJ", "result": "≤ 0.2", "unit": "µg/mL"}, {"measurement": "MIC", "setting": "Ser. marcescens 13014", "result": 0.4, "unit": "µg/mL"}, {"measurement": "MIC", "setting": "Ps. aeruginosa 2063", "result": 3.1, "unit": "µg/mL"}, {"measurement": "MIC", "setting": "Pr. vulgaris", "result": "≤ 0.2", "unit": "µg/mL"}, {"measurement": "MIC", "setting": "S. aureus", "result": 3.1, "unit": "µg/mL"}, {"measurement": "MIC", "setting": "Pr. mirabilis", "result": "≤ 0.2", "unit": "µg/mL"}, {"measurement": "LD50", "setting": "acute toxicity (LD50)", "result": 221, "unit": "mg/kg"}]}]}
